Reference: patent US12054478B2, “Compositions and methods for inhibiting phenyl triazole MLL1-WDR5 protein-protein interaction” (China Pharmaceutical University, priority 2018, dated 2024)
Converted amounts (≈) assume the structure as drawn. Read-outs that look alike come from different tables or passages of the source.

Columns and labels:
female balb/c mice = conditions: 80 mg/kg intraperitoneal, 10 consecutive days
Description: In the meantime, subacute toxicity experiments were conducted to evaluate the safety of some of the compounds in the present disclosure in mouse.

[1] = system: K562 human chronic myeloid leukemia cells; experiment: Anti-proliferation on leukemia cells, K562; assay type: cell-based
Description: Anti-proliferation experiments were conducted with leukemia cells with some of the compounds in the present disclosure. Table 3 listed the results of evaluation of the anti-proliferation activities for some of the compounds from this present disclosure conducted with acute leukemia cells, wherein MV4-11 is human acute leukemia monocyte, Molm-13 is human acute myeloid leukemia cells, and K562 is human chronic myeloid leukemia cells.

[2] = system: Molm-13 human acute myeloid leukemia cells; experiment: Anti-proliferation on leukemia cells, Molm-13; assay type: cell-based; conditions: Homo sapiens; Molm-13 cells
Description: (§1) Anti-proliferation experiments were conducted with leukemia cells with some of the compounds in the present disclosure.

[3] = system: MV4-11 human acute leukemia monocyte; experiment: Anti-proliferation on leukemia cells, MV4-11; assay type: cell-based; conditions: Homo sapiens, MV4-11; MV-411 cells
Description: as §1

[4] = target: MLL1-WDR5 protein-protein interactions (Homo sapiens, UniProt P61964); experiment: Inhibition of MLL1-WDR5 protein-protein interaction; assay type: binding
Solubility at pH 7.4 = assay type: physicochemical; conditions: aqueous medium at pH 7.4 (water solubility), aqueous buffer
[5] = Table 1, read-out: MLL1-WDR5 PPI inhibition activity
[6] = Table 2, compounds of this present disclosure
[7] = Table 2, compounds of this present disclosure, read-out: MLL1-WDR5 PP1 inhibition activity
[8] = Table 2, biphenyl comparison compounds (Eur. J. Med. Chem. 2016, 124, 480-489), read-out: MLL1-WDR5 PP1 inhibition activity
[9] = Table 2, biphenyl comparison compounds

GI50 [1]	GI50 [2]	GI50 [3]	IC50 [4, 5]	SMILES	other results
				Cc1c(F)c(N)cc(C(=O)Nc2cc(-c3ccc(NC(=O)C(N)C(C)C)cc3)ccc2N2CCN(C)CC2)c1Cl (stereo not drawn) [DDO-2113, reference compound]	Mouse survival (female balb/c mice): all mice died after dosing for 5 days
				Cc1c(F)c(N)cc(C(=O)Nc2cc(-c3ccc(NC(=O)CCCN)cc3)ccc2N2CCN(C)CC2)c1Cl [DDO-2117, reference compound]	Average body weight changes (female balb/c mice): apparent body weight decrease
13.5 ± 1.2 µM	13.5 ± 1.2 µM	13.5 ± 1.2 µM	< 0.01 µM	Cc1c(F)c(N)cc(C(=O)Nc2cc(-n3cc(C(=O)NCCCN)nn3)ccc2N2CCN(C)CC2)c1Cl [Example 10]	
13.5 ± 1.5 µM	13.5 ± 1.5 µM	13.5 ± 1.5 µM		Cc1c(F)c(N)cc(C(=O)Nc2cc(-n3ccnn3)ccc2N2CCN(C)CC2)c1Cl [Example 11, 5-amino-2-chloro-4-fluoro-3-methyl-N-(2-(4-methylpiperazin-1-group)-5-(1H-1,2,3-triazole-1-group)phenyl) benzamide]	
		23.2 ± 3.2 µM	< 0.08 µM	Cc1c(F)c(N)cc(C(=O)Nc2cc(-n3cc(NC(=O)OC(C)(C)C)nn3)ccc2N2CCN(C)CC2)c1Cl [Example 12]	
10.5 ± 2 µM	9.2 ± 1.4 µM	10.1 ± 1.3 µM	< 0.08 µM	Cc1c(F)c(N)cc(C(=O)Nc2cc(-n3cc(N)nn3)ccc2N2CCN(C)CC2)c1Cl [Example 13, 5-amino-N-(5-(4-amino-1H-1,2,3-triazole-1-group)-2-(4-methylpiperazin-1-group)phenyl)-2-chloro-4-fluoro-3-Methylbenzamide]	
14.1 ± 1.3 µM	11 ± 2 µM	9.5 ± 1 µM	< 0.01 µM	Cc1c(F)c(N)cc(C(=O)Nc2cc(-n3cc(NC(=O)C4CCN(C)CC4)nn3)ccc2N2CCN(C)CC2)c1Cl [Example 14]	
12.9 ± 0.2 µM	18.5 ± 1.9 µM	14.3 ± 1.7 µM	< 0.01 µM	Cc1c(F)c(N)cc(C(=O)Nc2cc(-n3cc(NC(=O)C4CCNCC4)nn3)ccc2N2CCN(C)CC2)c1Cl [Example 15, N-(1-(3-(5-amino-2-chloro-4-fluoro-3-Methylbenzoylamino)-4-(4-methylpiperazingroup)phenyl)-1H-1,2,3-Triazopyridine-4-group) Piperidine-4-formamide]	
21.3 ± 2.4 µM	7.3 ± 0.8 µM	10.4 ± 1.1 µM	< 0.05 µM	Cc1c(F)c(N)cc(C(=O)Nc2cc(-n3cc(NC(=O)CCO)nn3)ccc2N2CCN(C)CC2)c1Cl [Example 17, 5-amino-2-chloro-4-fluoro-N-(5-(4-(3-Hydroxypropionylamino)-1H-1,2,3-triazol-1-group)-2-(4-methylpiperazin-1-group)phenyl)-3-methyl benzoylamino]	
13.5 ± 1.2 µM	16.8 ± 2 µM	13.7 ± 1.4 µM	< 0.05 µM	Cc1c(F)c(N)cc(C(=O)Nc2cc(-n3cc(CCN(C)C)nn3)ccc2N2CCN(C)CC2)c1Cl [Example 19, 5-amino-2-chloro-N-(5-(4-(2-(Dimethylamino)ethyl)-1H-1,2,3-triazol-1-group)-2-(4-methylpiperazin-1-groupgroup)phenyl)-4-fluoro-3-Methyl benzoyl]	
10.5 ± 2 µM	10.1 ± 1.3 µM	8.6 ± 0.6 µM		CCOc1cn(-c2ccc(N3CCN(C)CC3)c(NC(=O)c3cc(N)c(F)c(C)c3Cl)c2F)nn1 [Example 20]	
10.5 ± 0.8 µM	7.7 ± 0.9 µM	12.7 ± 0.8 µM	< 0.08 µM	Cc1c(F)c(O)cc(C(=O)Nc2c(N3CCN(C)CC3)ccc(-n3cc(NCC(N)=O)nn3)c2F)c1Cl [Example 21, N-(3-(4-((2-amino-2-Oxoethyl)amino)-1H-1,2,3-triazol-1-group)-2-fluoro-6-(4-methylpiperazin-1-group)phenyl)-2-chloro-4-fluoro-5-hydroxyl-3-Methyl benzoyl]	
27.7 ± 0.3 µM	17.9 ± 1.6 µM		< 0.05 µM	Cc1c(F)c(O)cc(C(=O)Nc2c(N3CCN(C)CC3)ccc(-n3cc(NC(=O)CCN)nn3)c2C)c1Cl [Example 23]	
13.5 ± 2.2 µM	12.9 ± 0.9 µM	11.3 ± 0.7 µM	< 0.05 µM	Cc1c(F)c(N)cc(C(=O)Nc2cc(-n3cc(C(=O)NCCN4CCOCC4)nn3)ccc2N2CCCN(C)CC2)c1Cl [Example 24, 1-(3-(5-amino-2-chloro-4-fluoro-3-Methylbenzoylamino)-4-(4-methyl-1,4-Diazepane-1-group)phenyl)-N-(2-Morpholineethyl)-1H-1,2,3-triazol-4-formamide]	
11.3 ± 0.7 µM	8.5 ± 0.7 µM	10.9 ± 0.9 µM	< 0.05 µM	Cc1c(F)c(N)cc(C(=O)Nc2cc(-n3cc(C(=O)NCCN4CCOCC4)nn3)ccc2N2CCN(C)C(C)C2)c1Cl (stereo not drawn) [Example 25]	
				COC(=O)c1cn(-c2ccc(N3CCN(C)CC3)c(NC(=O)c3cc(N)c(F)c(C)c3Cl)c2)nn1 [drawing 6]	solubility (Solubility at pH 7.4; [6]): 20 µg/mL (≈ 39.8 µM)

GI50 [1]	GI50 [2]	GI50 [3]	IC50 [4, 5]	SMILES	other results
				Cc1c(F)c(N)cc(C(=O)Nc2cc(-n3cc(C(=O)N(C)C)nn3)ccc2N2CCN(C)CC2)c1Cl [drawing 8]	solubility (Solubility at pH 7.4; [6]): 170 µg/mL (≈ 330 µM)
				Cc1c(F)c(N)cc(C(=O)Nc2cc(-n3cc(C(=O)N4CCOCC4)nn3)ccc2N2CCN(C)CC2)c1Cl [drawing 10]	solubility (Solubility at pH 7.4; [6]): 200 µg/mL (≈ 359 µM)
				Cc1c(F)c(N)cc(C(=O)Nc2cc(-n3ccnn3)ccc2N2CCN(C)CC2)c1Cl [drawing 12]	IC50 [4, 7]: 0.0657 µM; solubility (Solubility at pH 7.4; [6]): 30 µg/mL (≈ 67.6 µM)
				Cc1c(F)c(N)cc(C(=O)Nc2cc(-n3cc(N)nn3)ccc2N2CCN(C)CC2)c1Cl [drawing 14]	IC50 [4, 7]: 0.0903 µM; solubility (Solubility at pH 7.4; [6]): 110 µg/mL (≈ 240 µM)
				Cc1c(F)c(N)cc(C(=O)Nc2cc(-c3ccc(N)cc3)ccc2N2CCN(C)CC2)c1Cl [drawing 15, reference compound]	IC50 [4, 8]: 0.0887 µM; solubility (Solubility at pH 7.4; [9]): 9.5 µg/mL (≈ 20.3 µM)
				Cc1c(F)c(N)cc(C(=O)Nc2cc(-n3cc(NC(=O)C4CCN(C)CC4)nn3)ccc2N2CCN(C)CC2)c1Cl [drawing 16]	IC50 [4, 7]: 0.006 µM; solubility (Solubility at pH 7.4; [6]): 630 µg/mL (≈ 1080 µM)
				Cc1c(F)c(N)cc(C(=O)Nc2cc(-n3cc(NC(=O)C4CCNCC4)nn3)ccc2N2CCN(C)CC2)c1Cl [drawing 18]	IC50 [4, 7]: 0.0123 µM; solubility (Solubility at pH 7.4; [6]): 1240 µg/mL (≈ 2170 µM)
				Cc1c(F)c(N)cc(C(=O)Nc2cc(-n3cc(NC(=O)CCCN)nn3)ccc2N2CCN(C)CC2)c1Cl [drawing 20]	IC50 [4, 7]: 0.0067 µM; solubility (Solubility at pH 7.4; [6]): 1300 µg/mL (≈ 2400 µM)
				Cc1c(F)c(N)cc(C(=O)Nc2cc(-c3ccc(NC(=O)CCCN)cc3)ccc2N2CCN(C)CC2)c1Cl [drawing 21, reference compound]	solubility (Solubility at pH 7.4; [9]): 110 µg/mL (≈ 199 µM)
				COC(=O)c1ccc(-c2ccc(N3CCN(C)CC3)c(NC(=O)c3cc(N)c(F)c(C)c3Cl)c2)cc1 [reference compound]	solubility (Solubility at pH 7.4; [9]): 1.9 µg/mL (≈ 3.72 µM)
				Cc1c(F)c(N)cc(C(=O)Nc2cc(-c3ccc(C(=O)N(C)C)cc3)ccc2N2CCN(C)CC2)c1Cl [reference compound]	solubility (Solubility at pH 7.4; [9]): 21 µg/mL (≈ 40.1 µM)
				Cc1c(F)c(N)cc(C(=O)Nc2cc(-c3ccc(C(=O)N4CCOCC4)cc3)ccc2N2CCN(C)CC2)c1Cl [reference compound]	solubility (Solubility at pH 7.4; [9]): 27 µg/mL (≈ 47.7 µM)
				Cc1c(F)c(N)cc(C(=O)Nc2cc(-c3ccccc3)ccc2N2CCN(C)CC2)c1Cl [reference compound]	IC50 [4, 8]: 0.0479 µM; solubility (Solubility at pH 7.4; [9]): 3.1 µg/mL (≈ 6.84 µM)
				Cc1c(F)c(N)cc(C(=O)Nc2cc(-c3ccc(NC(=O)C4CCN(C)CC4)cc3)ccc2N2CCN(C)CC2)c1Cl [reference compound]	solubility (Solubility at pH 7.4; [9]): 54 µg/mL (≈ 91 µM)
				Cc1c(F)c(N)cc(C(=O)Nc2cc(-c3ccc(NC(=O)C4CCNCC4)cc3)ccc2N2CCN(C)CC2)c1Cl [reference compound]	IC50 [4, 8]: 0.0085 µM; solubility (Solubility at pH 7.4; [9]): 125 µg/mL (≈ 216 µM)

SMILES	GI50 [1]	GI50 [2]	GI50 [3]	IC50 [4, 5]	other results
Cc1c(F)c(N)cc(C(=O)Nc2cc(-n3cc(C(=O)N(C)C)nn3)ccc2N2CCN(C)CC2)c1Cl [Example 3, 1-(3-(5-Amino-2-chloro-4-fluoro-3-methylbenzoylamino)-4-(4-methylpiperazin-1-group)phenyl)-N, N-dimethyl-1H-1,2,3 triazole-4-carboxamide]	> 100 µM	22.8 ± 5.5 µM	44.6 ± 1.3 µM		
Cc1c(F)c(N)cc(C(=O)Nc2cc(-n3cc(C(=O)NC4CCOCC4)nn3)ccc2N2CCN(C)CC2)c1Cl [Example 5, 1-(3-(5-Amino-2-chloro-4-fluoro-3-methylbenzoylamino)-4-(4-methylpiperazin-1-group)phenyl)-N-(tetrahydro-2H-pyran-4-yl)-1H-1,2,3-triazole-4-carboxamide]	27.5 ± 2.8 µM				
Cc1c(F)c(N)cc(C(=O)Nc2cc(-n3cc(C(=O)NC4CCN(C)CC4)nn3)ccc2N2CCN(C)CC2)c1Cl [Example 6, 1-(3-(5-Amino-2-chloro-4-fluoro-3-methylbenzoylamino)-4-(4-methylpiperazin-1-group)phenyl)-N-(1-methylpiperidin-4-group)-1H-1,2,3-triazole-4-carboxamide]	10.4 ± 0.7 µM				Average body weight changes (female balb/c mice): slight body weight increase
Cc1c(F)c(N)cc(C(=O)Nc2cc(-n3cc(C(=O)N4CCN(C)CC4)nn3)ccc2N2CCN(C)CC2)c1Cl [Example 8, 5-amino-2-chloro-4-fluoro-3-ethyl-N-(2-(4-methylpiperazin-1-group)-5-(4-(methylpiperazin-1-Carbonyl)-1H-1,-1H-1,2,3-triazole-1-group) Phenyl)-carboxamide]	34.1 ± 1.2 µM				
Cc1c(F)c(N)cc(C(=O)Nc2cc(-n3cc(C(=O)NCCN4CCOCC4)nn3)ccc2N2CCN(C)CC2)c1Cl [Example 9]	35.8 ± 2.7 µM				
